# Assay: Tentative identification of metabolites from α-MG by UPLC-MS/MS
# Format: in vivo
# Details: mice after intravenous and oral α-MG; S9 fractions after 30-min incubation
# Source text: Probable metabolites of α-MG were identified using the simultaneous full scan MS, MRM and MS/MS modes in a Waters UPLC-XEVO TQ system (Waters Corporation, Milford, USA) to confirm the structures of any metabolites. […] Structural elucidation of the metabolites was based on the fragmentation patterns of parent ion from the MS/MS mode at a collision energy of 10 to 20 eV generating daughter ions. The mass transitions for α-MG was m/z 411.21 → 354.85 (collision energy of 20 eV and collision cell exit potential of 25 eV, respectively). The unknown masses were further analyzed in MS/MS (daughter scan) mode with the electrospray ionization interface used to generate positive and negative ions at a capillary voltage of 3.0 kV, source temperature of 350°C and desolvation gas temperature of 650°C. The MRM methods for identification of possible metabolites generated by phase I and/or II reactions were included.
# These compounds were separated on a reversed-phase C18 column (XSELECT CSH, 2.1 mm × 100 mm i.d., 1.7-μm particle size; Waters, Ireland) with a flow rate of 0.35 mL/min. The mobile phase composition was started at 95: 5 (v/v) of distilled water containing 0.1% formic acid (A) and acetonitrile (B) and gradually changed to 35: 65 (v/v) for 30 min, and then switched back to 95: 5 (v/v) for 40 min.
row,SMILES,Source (samples in which detected)
1,COc1c(O)cc2oc3cc(O)c(CC=C(C)C)c(O)c3c(=O)c2c1CC1OC1(C)C (stereo not drawn) [M12],"liver, small intestine, feces"
2,COc1c(O)cc2oc3c(O)c(O)c(CC=C(C)C)c(O)c3c(=O)c2c1CC=C(C)C [M10],"liver, small intestine, feces"
3,COc1c(O)c(O)c2oc3cc(O)c(CC=C(C)C)c(O)c3c(=O)c2c1CC=C(C)C [M11],"liver, small intestine, feces"
4,COc1c(O)cc2oc3cc(O)c(CC4OC4(C)C)c(O)c3c(=O)c2c1CC=C(C)C (stereo not drawn) [M13],"liver, small intestine, feces"

# The next lines start with the values.
row,Source (samples in which detected),SMILES
1,"urine, feces, liver, small intestine",COc1c(O)cc2oc3cc4c(c(O)c3c(=O)c2c1CC=C(C)C)C=CC(C)(C)O4 [M7]
2,"urine, feces, liver, small intestine",COc1c(O)cc2oc3cc(O)c4c(c3c(=O)c2c1CC=C(C)C)OC(C)(C)C=C4 [M8]

# Reference: publication PMC4503439, “Dose-Independent ADME Properties and Tentative Identification of Metabolites of α-Mangostin from Garcinia mangostana in Mice by Automated Microsampling and UPLC-MS/MS Methods” (PLoS ONE, 2015)
